Results as given in patent US9802901B2, “Antibacterial 2H-indazole derivatives” (priority 2013, dated 2017).
Values after ≈ are worked out from the molar mass of the structure shown. Where a name gives a salt, the structure may show the parent alone. Read-outs that look alike come from different tables or passages of the source.

Columns and labels:
Experiment in all cases: Bacterial growth minimal inhibitory concentration (broth microdilution, CLSI M7-A7)
[1] = system: Acinetobacter baumannii T6474; format: cell-based; conditions: for MIC: Acinetobacter baumannii
Protocol: (§1) Minimal Inhibitory Concentrations (MICs; mg/L) were determined in cation-adjusted Mueller-Hinton Broth by a microdilution method following the description given in “Methods for Dilution Antimicrobial Susceptibility Tests for Bacteria that Grow Aerobically”, Approved standard, 7th ed., Clinical and Laboratory Standards Institute (CLSI) Document M7-A7, Wayne, Pa., USA (2006).
(§2) All Example compounds, except the compound of Example 62, were tested against several Gram-positive and Gram-negative bacteria. […] K. pneumoniae A-651 and Acinetobacter baumannii T6474 are multiply-resistant strains (in particular quinolone-resistant), while E. coli ATCC25922 and P. aeruginosa ATCC27853 are quinolone-sensitive strains.

E. coli ATCC25922 = format: cell-based, Escherichia coli; conditions: for MIC: Escherichia coli
Protocol: as §1, §2

K. pneumoniae A-651 = format: cell-based, Klebsiella pneumoniae; conditions: for MIC: Klebsiella pneumoniae
Protocol: as §1, §2

P. aeruginosa ATCC27853 = format: cell-based, Pseudomonas aeruginosa; conditions: for MIC: Pseudomonas aeruginosa
Protocol: as §1, §2

[2] = T6474, cation-adjusted Mueller-Hinton Broth, microdilution, multiply-resistant (quinolone-resistant) strain, read-out: MIC for A. Baumannii T6474
[3] = ATCC25922, cation-adjusted Mueller-Hinton Broth, microdilution, quinolone-sensitive strain, read-out: MIC for E. coli ATCC25922
[4] = A651, cation-adjusted Mueller-Hinton Broth, microdilution, multiply-resistant (quinolone-resistant) strain, read-out: MIC for K. Pneumoniae A-651
[5] = ATCC27853, cation-adjusted Mueller-Hinton Broth, microdilution, quinolone-sensitive strain, read-out: MIC for P. aeruginosa ATCC27853
[6] = cation-adjusted Mueller-Hinton Broth, microdilution, multiply-resistant (quinolone-resistant) strain
[7] = cation-adjusted Mueller-Hinton Broth, microdilution, quinolone-sensitive strain

Structure (SMILES) | MIC [1, 2] | MIC (E. coli ATCC25922; [3]) | MIC (K. pneumoniae A-651; [4]) | MIC (P. aeruginosa ATCC27853; [5]) | also measured
CC(CCn1cc2cc(C#Cc3ccc(C4(O)COC4)cc3)c(F)cc2n1)(C(=O)NO)S(C)(=O)=O (stereo not shown) [Example 40, 4-(6-fluoro-5-((4-(3-hydroxyoxetan-3-yl)phenyl)ethynyl)-2H-indazol-2-yl)-N-hydroxy-2-methyl-2-(methylsulfonyl)butanamide] | 1 µg/mL (≈ 1.99 µM) | 0.125 µg/mL (≈ 0.249 µM) | 0.25 µg/mL (≈ 0.498 µM) | 1 µg/mL (≈ 1.99 µM) | 
C[C@@](CCn1cc2cc(C#CC#CC3(N)COC3)ccc2n1)(C(=O)NO)S(C)(=O)=O [Example 48, (R)-4-(5-((3-aminooxetan-3-yl)buta-1,3-diyn-1-yl)-2H-indazol-2-yl)-N-hydroxy-2-methyl-2-(methylsulfonyl)butanamide formate] |  |  |  |  | MIC ([1]; T6474, read-out: MIC for A. Baumannii T6474): > 32 µg/mL; MIC (E. coli ATCC25922; ATCC25922, read-out: MIC for E. coli ATCC25922): 2 µg/mL; MIC (K. pneumoniae A-651; A651, read-out: MIC for K. Pneumoniae A-651): 4 µg/mL; MIC (P. aeruginosa ATCC27853; ATCC27853, read-out: MIC for P. aeruginosa ATCC27853): 2 µg/mL
C[C@@](CCn1cc2cc(-c3ccc(OCCO)cc3F)ccc2n1)(C(=O)NO)S(C)(=O)=O [Example 50, (R)-4-(5-(2-fluoro-4-(2-hydroxyethoxy)phenyl)-2H-indazol-2-yl)-N-hydroxy-2-methyl-2-(methylsulfonyl)butanamide] | 2 µg/mL (≈ 4.3 µM) | 0.5 µg/mL (≈ 1.07 µM) | 1 µg/mL (≈ 2.15 µM) | 2 µg/mL (≈ 4.3 µM) | 
COCCOc1ccc(-c2ccc3nn(CC[C@](C)(C(=O)NO)S(C)(=O)=O)cc3c2)cc1 [Example 52, (R)—N-hydroxy-4-(5-(4-(2-methoxyethoxy)phenyl)-2H-indazol-2-yl)-2-methyl-2-(methylsulfonyl)butanamide] | 1 µg/mL (≈ 2.17 µM) | 0.125 µg/mL (≈ 0.271 µM) | 0.5 µg/mL (≈ 1.08 µM) | 2 µg/mL (≈ 4.33 µM) | 
C[C@@](CCn1cc2cc(C#CC#C[C@H]3C[C@@H]3CO)c(F)cc2n1)(C(=O)NO)S(C)(=O)=O [Example 53, (R)-4-(6-fluoro-5-(((1S,2S)-2-(hydroxymethyl)cyclopropyl)buta-1,3-diyn-1-yl)-2H-indazol-2-yl)-N-hydroxy-2-methyl-2-(methylsulfonyl)butanamide] | 2 µg/mL (≈ 4.47 µM) | ≤ 0.063 µg/mL | 0.125 µg/mL (≈ 0.279 µM) | 0.5 µg/mL (≈ 1.12 µM) | 
C[C@@](CCn1cc2c(F)c(C#CC#C[C@H]3C[C@@H]3CO)ccc2n1)(C(=O)NO)S(C)(=O)=O [Example 54, (R)-4-(4-fluoro-5-(((1S,2S)-2-(hydroxymethyl)cyclopropyl)buta-1,3-diyn-1-yl)-2H-indazol-2-yl)-N-hydroxy-2-methyl-2-(methylsulfonyl)butanamide] | 4 µg/mL (≈ 8.94 µM) | ≤ 0.063 µg/mL | ≤ 0.063 µg/mL | 0.5 µg/mL (≈ 1.12 µM) | 
C[C@@](CCn1cc2cc(C#CC#CC34CC(CO)(C3)C4)ccc2n1)(C(=O)NO)S(C)(=O)=O [Example 57, (R)—N-hydroxy-4-(5-((3-(hydroxymethyl)bicyclo[1.1.1]pentan-1-yl)buta-1,3-diyn-1-yl)-2H-indazol-2-yl)-2-methyl-2-(methylsulfonyl)butanamide] | 8 µg/mL (≈ 17.6 µM) | 0.125 µg/mL (≈ 0.274 µM) | 0.25 µg/mL (≈ 0.549 µM) | 0.5 µg/mL (≈ 1.1 µM) | 
C[C@@](CCn1cc2cc(-c3ccc(OC[C@H](O)CO)cc3F)ccc2n1)(C(=O)NO)S(C)(=O)=O [Example 58, (R)-4-(5-(4-((R)-2,3-dihydroxypropoxy)-2-fluorophenyl)-2H-indazol-2-yl)-N-hydroxy-2-methyl-2-(methylsulfonyl)butanamide] | 8 µg/mL (≈ 16.1 µM) | 2 µg/mL (≈ 4.04 µM) | 4 µg/mL (≈ 8.07 µM) | 2 µg/mL (≈ 4.04 µM) | 
C[C@@](CCn1cc2cc(C#CC#C[C@@H]3C[C@@H](O)[C@@H](O)C3)ccc2n1)(C(=O)NO)S(C)(=O)=O [Example 64, (R)-4-(5-(((1S,3R,4S)-3,4-dihydroxycyclopentyl)buta-1,3-diyn-1-yl)-2H-indazol-2-yl)-N-hydroxy-2-methyl-2-(methylsulfonyl)butanamide] |  |  |  |  | MIC for A. Baumannii T6474 [1, 6]: 4 µg/mL; MIC for E. coli ATCC25922 (E. coli ATCC25922; [7]): 0.125 µg/mL; MIC for K. Pneumoniae A-651 (K. pneumoniae A-651; [6]): 0.5 µg/mL; MIC for P. aeruginosa ATCC27853 (P. aeruginosa ATCC27853; [7]): 0.25 µg/mL
C[C@@](CCn1cc2cc(C#CC#CC3(N)CC3)ccc2n1)(C(=O)NO)S(C)(=O)=O [Example 65, (R)-4-(5-((1-aminocyclopropyl)buta-1,3-diyn-1-yl)-2H-indazol-2-yl)-N-hydroxy-2-methyl-2-(methylsulfonyl)butanamide] | > 32 µg/mL | 0.125 µg/mL (≈ 0.302 µM) | 0.125 µg/mL (≈ 0.302 µM) | 0.5 µg/mL (≈ 1.21 µM) | 

The next lines start with results.

MIC [1, 2] | MIC (E. coli ATCC25922; [3]) | MIC (K. pneumoniae A-651; [4]) | MIC (P. aeruginosa ATCC27853; [5]) | Structure (SMILES) | also measured
0.125 µg/mL (≈ 0.26 µM) | 0.125 µg/mL (≈ 0.26 µM) | 0.063 µg/mL (≈ 0.131 µM) | 1 µg/mL (≈ 2.08 µM) | C[C@@](CCn1cc2cc(C#Cc3ccc([C@@H]4C[C@H]4CO)cc3)ccc2n1)(C(=O)NO)S(C)(=O)=O [Example 41, (R)—N-hydroxy-4-(5-((4-((1R,2R)-2-(hydroxymethyl)cyclopropyl)phenyl)ethynyl)-2H-indazol-2-yl)-2-methyl-2-(methylsulfonyl)butanamide] | 
0.125 µg/mL (≈ 0.26 µM) | 0.063 µg/mL (≈ 0.131 µM) | 0.063 µg/mL (≈ 0.131 µM) | 0.25 µg/mL (≈ 0.519 µM) | C[C@@](CCn1cc2cc(C#Cc3ccc([C@H]4C[C@@H]4CO)cc3)ccc2n1)(C(=O)NO)S(C)(=O)=O [Example 42, (R)—N-hydroxy-4-(5-((4-((1S,2S)-2-(hydroxymethyl)cyclopropyl)phenyl)ethynyl)-2H-indazol-2-yl)-2-methyl-2-(methylsulfonyl)butanamide] | 
2 µg/mL (≈ 4.02 µM) | 1 µg/mL (≈ 2.01 µM) | 1 µg/mL (≈ 2.01 µM) | 2 µg/mL (≈ 4.02 µM) | C[C@@](CCn1cc2cc(C#Cc3ccc(C4(CO)COC4)cc3)ccc2n1)(C(=O)NO)S(C)(=O)=O [Example 43, (R)—N-hydroxy-4-(5-((4-(3-(hydroxymethyl)oxetan-3-yl)phenyl)ethynyl)-2H-indazol-2-yl)-2-methyl-2-(methylsulfonyl)butanamide] | 
0.25 µg/mL (≈ 0.53 µM) | 0.125 µg/mL (≈ 0.265 µM) | 0.25 µg/mL (≈ 0.53 µM) | 1 µg/mL (≈ 2.12 µM) | C[C@@](CCn1cc2cc(C#Cc3ccc(OCCO)cc3)ccc2n1)(C(=O)NO)S(C)(=O)=O [Example 44, (R)—N-hydroxy-4-(5-((4-(2-hydroxyethoxy)phenyl)ethynyl)-2H-indazol-2-yl)-2-methyl-2-(methylsulfonyl)butanamide] | 
8 µg/mL (≈ 15.9 µM) | 0.25 µg/mL (≈ 0.497 µM) | 1 µg/mL (≈ 1.99 µM) | 1 µg/mL (≈ 1.99 µM) | C[C@@](CCn1cc2cc(C#Cc3ccc(NC(=O)CO)c(F)c3)ccc2n1)(C(=O)NO)S(C)(=O)=O [Example 45, (R)-4-(5-((3-fluoro-4-(2-hydroxyacetamido)phenyl)ethynyl)-2H-indazol-2-yl)-N-hydroxy-2-methyl-2-(methylsulfonyl)butanamide] | 
> 32 µg/mL | 4 µg/mL (≈ 9.23 µM) | 8 µg/mL (≈ 18.5 µM) | 4 µg/mL (≈ 9.23 µM) | C[C@@](O)(C#CC#Cc1ccc2nn(CC[C@](C)(C(=O)NO)S(C)(=O)=O)cc2c1)CO [Example 46, (R)-4-(5-((R)-5,6-dihydroxy-5-methylhexa-1,3-diyn-1-yl)-2H-indazol-2-yl)-N-hydroxy-2-methyl-2-(methylsulfonyl)butanamide] | 
1 µg/mL (≈ 2.06 µM) | 0.25 µg/mL (≈ 0.516 µM) | 0.5 µg/mL (≈ 1.03 µM) | 1 µg/mL (≈ 2.06 µM) | C[C@@](CCn1cc2cc(C#Cc3ccc(NC(=O)CO)cc3)ccc2n1)(C(=O)NO)S(C)(=O)=O [Example 47, (R)—N-hydroxy-4-(5-((4-(2-hydroxyacetamido)phenyl)ethynyl)-2H-indazol-2-yl)-2-methyl-2-(methylsulfonyl)butanamide] | 
> 32 µg/mL | 4 µg/mL (≈ 8.69 µM) | 4 µg/mL (≈ 8.69 µM) | 4 µg/mL (≈ 8.69 µM) | C[C@@](CCn1cc2cc(-c3ccc(NC(=O)CO)cc3)ccc2n1)(C(=O)NO)S(C)(=O)=O [Example 49, (R)—N-hydroxy-4-(5-(4-(2-hydroxyacetamido)phenyl)-2H-indazol-2-yl)-2-methyl-2-(methylsulfonyl)butanamide] | 
1 µg/mL (≈ 2.12 µM) | 1 µg/mL (≈ 2.12 µM) | 0.5 µg/mL (≈ 1.06 µM) | 0.5 µg/mL (≈ 1.06 µM) | C[C@@](CCn1cc2cc(C#Cc3ccc([C@H](O)CO)cc3)ccc2n1)(C(=O)NO)S(C)(=O)=O [Example 51, (R)-4-(5-((4-((S)-1,2-dihydroxyethyl)phenyl)ethynyl)-2H-indazol-2-yl)-N-hydroxy-2-methyl-2-(methylsulfonyl)butanamide] | 
> 32 µg/mL | 2 µg/mL (≈ 4.77 µM) | 4 µg/mL (≈ 9.54 µM) | 2 µg/mL (≈ 4.77 µM) | C[C@@](CCn1cc2cc(C#CC#C[C@H](O)CO)ccc2n1)(C(=O)NO)S(C)(=O)=O [Example 55, (R)-4-(5-((S)-5,6-dihydroxyhexa-1,3-diyn-1-yl)-2H-indazol-2-yl)-N-hydroxy-2-methyl-2-(methylsulfonyl)butanamide] | 
> 32 µg/mL | 0.25 µg/mL (≈ 0.582 µM) | 0.5 µg/mL (≈ 1.16 µM) | 0.5 µg/mL (≈ 1.16 µM) | C[C@@](CCn1cc2cc(C#CC#CC3(CO)CC3)ccc2n1)(C(=O)NO)S(C)(=O)=O [Example 56, (R)—N-hydroxy-4-(5-((1-(hydroxymethyl)cyclopropyl)buta-1,3-diyn-1-yl)-2H-indazol-2-yl)-2-methyl-2-(methylsulfonyl)butanamide] | 
8 µg/mL (≈ 19.3 µM) | 4 µg/mL (≈ 9.67 µM) | 8 µg/mL (≈ 19.3 µM) | 8 µg/mL (≈ 19.3 µM) | C[C@@](CCn1cc2cc(C#Cc3cncnc3)ccc2n1)(C(=O)NO)S(C)(=O)=O [Example 59, (R)—N-hydroxy-2-methyl-2-(methylsulfonyl)-4-(5-(pyrimidin-5-ylethynyl)-2H-indazol-2-yl)butanamide] | 
